Measured values: patent US12256764B2 (priority 2017, dated 2025)

Test system: rats
Assay: Acute oral toxicity (LD50) in rats
Conditions: conversion of the MSDS LD50

## OCC(O)CO [Vegetable glycerin, glycerol]
  LD50 oral rat dosage expressed for a 180 pound male: 36 ounces
